Active and inactive are the calls of the source. The calls are words filed in the database; no cut-off is given here.

The term IC50 denotes the concentration that gives 50% inhibition.

The nature of data set [1]: Cytotoxicity against multi-drug resistance human KBV cells assessed as cell survival in presence of Verapamil incubated for 72 hrs by MTT assay. The class given is functional, cell-based.
The nature of data set [2]: Cytotoxicity against multi-drug resistance human KBV cells assessed as cell survival in presence of Tariquidar incubated for 72 hrs by MTT assay. The class given is functional, cell-based. For orientation: Formazan colour is commonly taken as a measure of viable cells.
Data set [3] can be described thus: Cytotoxicity against multi-drug resistance human KBV cells assessed as cell survival in presence of 5 uM (20S,24R)-Epoxy-3-beta-N-glycyl-[3,2-b]thiazole-dammarane-12-beta,25-diol incubated for 72 hrs by MTT assay. Type of data set: functional, cell-based.
Data set [4] can be described thus: Cytotoxicity against multi-drug resistance human KBV cells assessed as cell survival incubated for 72 hrs by MTT assay. The class given is functional, cell-based.
The nature of data set [5]: Cytotoxicity against multi-drug resistance human KBV cells assessed as cell survival in presence of 10 uM (20S,24R)-Epoxy-3-beta-N-glycyl-[3,2-b]thiazole-dammarane-12-beta,25-diol incubated for 72 hrs by MTT assay. Type of data set: functional, cell-based.
The nature of data set [6]: Toxicity in BALB/c nude mouse xenografted with human MDR KBV cells assessed as change in body weight administered at 30 mg/kg every 3 days for 18 days. Type of data set: organism-based. The note with it: in vivo, 432 h, time 18 day.
Data set [7] is described as follows: Cytotoxicity against multi-drug resistance human KBV cells assessed as cell survival rate at 10 uM in presence of 100 nM Paclitaxel incubated for 72 hrs by MTT assay. The class given is functional. The note with it: read-out: Survival.
The test system of the next data set is KBV. Description: Antitumor activity against human MDR KBV cells xenografted in BALB/c nude mouse assessed as change in tumor volume at 30 mg/kg every 3 days for 18 days. Type of data set: functional, organism-based. The note with it: time 18.0 day.

Consider `O=C1c2c(O)ccc(O)c2C(=O)c2c(NCCNCCO)ccc(NCCNCCO)c21` [MITOXANTRONE], for which the IC50 was determined as 97.5 nM in data set [1]; 90 nM in data set [2]; 165 nM in data set [3]; 299 nM in data set [4]; 61.9 nM in data set [5].

`CC(=O)O[C@H]1C(=O)[C@@]2(C)[C@H]([C@H](OC(=O)c3ccccc3)[C@]3(O)C[C@H](OC(=O)[C@H](O)[C@@H](NC(=O)c4ccccc4)c4ccccc4)C(C)=C1C3(C)C)[C@]1(OC(C)=O)CO[C@@H]1C[C@@H]2O` [PACLITAXEL]: the IC50 came to 9.66 nM in data set [1]; 2.16 nM in data set [2]; 58.5 nM in data set [3]; 788 nM in data set [4]; 2.17 nM in data set [5]. For the same molecule, the Activity result in data set [6] is “Non-Toxic”. Further, in data set [7], the viability at 10 µM was found to be 99.3%. Further, in the data set with KBV, the outcome was inactive.

Regarding `CC[C@]1(O)C[C@H]2CN(CCc3c([nH]c4ccccc34)[C@@](C(=O)OC)(c3cc4c(cc3OC)N(C=O)[C@H]3[C@@](O)(C(=O)OC)[C@H](OC(C)=O)[C@]5(CC)C=CCN6CC[C@]43[C@@H]65)C2)C1` [VINCRISTINE], the concentration for half-maximal inhibition (IC50) in data set [1] was found to be 1.63 nM; in data set [2], 1.5 nM; in data set [3], 13.7 nM; in data set [4], 559 nM; in data set [5] it was 1.18 nM.
